In patent US11612606B2, “8-aminoisoquinoline compounds and uses thereof” (priority 2018, dated 2023):

target: HPK full length, T165E S171E (Homo sapiens (Human), UniProt Q92918, S171E/T165E); assay: HPK1-FL HTRF enzymatic assay ("HTRF"); type: biochemical; conditions: ATP 1 mM, read-out: HPK1 Ki
Experimental: Assay Principle: HPK-FL enzyme phosphorylates Biotin-SLP-76 substrate in the presence of ATP at […] and varying concentrations of test compound. Product is detected by FRET using Eu-anti-pSLP76 Ab and SA-XL665. Also see www.cisbio.com/HTRF for additional HTRF technology information.
Instrumentation: Echo555 compound dispenser; Agilent Bravo; Perkin Elmer Envision.
To a 384 well Proxiplate with 80 nL compound or DMSO spotted on was added 4 μl/well kinase mix. The mixture was preincubated for 30 minutes and then 4 μl/well substrate mix was added. The solution was incubated for 60 min and then 4 μl/well detection mix was added. The solution was incubated for another 60 min.
Exemplary compounds were tested in the HTRF binding assays.

HPK full length, T165E S171E, sequence (Q92918 whole entry T165E/S171E, looked up): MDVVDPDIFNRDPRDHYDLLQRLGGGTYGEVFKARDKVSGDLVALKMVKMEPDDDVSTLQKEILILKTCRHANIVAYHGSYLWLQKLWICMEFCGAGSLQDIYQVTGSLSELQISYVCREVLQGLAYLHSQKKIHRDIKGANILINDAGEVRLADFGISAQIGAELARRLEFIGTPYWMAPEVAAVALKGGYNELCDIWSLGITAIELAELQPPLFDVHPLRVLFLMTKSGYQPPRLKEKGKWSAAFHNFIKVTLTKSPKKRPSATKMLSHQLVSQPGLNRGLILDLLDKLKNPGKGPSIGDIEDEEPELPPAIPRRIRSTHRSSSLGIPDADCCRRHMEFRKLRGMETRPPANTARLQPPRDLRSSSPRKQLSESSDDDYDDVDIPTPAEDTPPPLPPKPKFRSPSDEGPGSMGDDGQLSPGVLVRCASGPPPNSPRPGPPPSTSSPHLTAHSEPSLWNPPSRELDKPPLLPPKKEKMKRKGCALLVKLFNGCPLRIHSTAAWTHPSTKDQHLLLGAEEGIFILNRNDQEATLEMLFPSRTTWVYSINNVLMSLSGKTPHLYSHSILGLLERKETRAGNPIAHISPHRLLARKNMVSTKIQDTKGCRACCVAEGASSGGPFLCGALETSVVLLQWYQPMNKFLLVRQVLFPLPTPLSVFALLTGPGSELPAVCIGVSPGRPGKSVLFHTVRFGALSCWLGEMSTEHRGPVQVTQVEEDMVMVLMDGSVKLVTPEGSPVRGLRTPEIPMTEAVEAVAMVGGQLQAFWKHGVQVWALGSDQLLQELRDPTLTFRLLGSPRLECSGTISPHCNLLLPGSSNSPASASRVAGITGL

Compared with `Cc1c(-c2cc3cc(NC(=O)OC4CCOC4)ncc3c(N)c2F)cnc2c1NCCO2` (racemic) [Compound 403, (±)-Tetrahydrofuran-3-yl (8-amino-7-fluoro-6-(8-methyl-2,3-dihydro-1H-pyrido[2,3-b][1,4]oxazin-7-yl)isoquinolin-3-yl)carbamate], `Cc1c(-c2cc3cc(NC(=O)O[C@H]4COCCN(C)C4)ncc3c(N)c2F)cnc2c1NCCO2` (single isomer, unassigned) [Compound 440a] is 3.7-fold higher in Ki: 0.023 nM for the first, 0.084 nM for the second.

Compared with `Cc1c(-c2cc3cc(NC(=O)O[C@@H]4COC[C@H]4C)ncc3c(N)c2F)cnc2c1NCCO2` (racemic) [Compound 441ab, (±)-trans-4-Methyltetrahydrofuran-3-yl (8-amino-7-fluoro-6-(8-methyl-2,3-dihydro-1H-pyrido[2,3-b][1,4]oxazin-7-yl)isoquinolin-3-yl)carbamate], `Cc1c(-c2cc3cc(NC(=O)O[C@H]4COC[C@H]4C)ncc3c(N)c2F)cnc2c1NCCO2` (single isomer, unassigned) [Compound 441c] is 4.3-fold higher in Ki: 0.037 nM for the first, 0.16 nM for the second. The first binds more tightly here.

Compared with `Cc1c(-c2cc3cc(NC(=O)O[C@@H]4CCO[C@H]4C)ncc3c(N)c2F)cnc2c1NCCO2` (racemic) [Compound 510a, (2S,3R)-2-methyltetrahydrofuran-3-yl (8-amino-7-fluoro-6-(8-methyl-2,3-dihydro-1H-pyrido[2,3-b][1,4]oxazin-7-yl)isoquinolin-3-yl)carbamate], `Cc1c(-c2cc3cc(NC(=O)O[C@@H]4COC[C@H]4C)ncc3c(N)c2F)cnc2c1NCCO2` (single isomer, unassigned) [Compound 441a] is lower in Ki: 0.395 nM for the first, < 0.013 nM for the second.

Going from `Cc1c(-c2cc3cc(NC(=O)O[C@@H]4CCOC4)ncc3c(N)c2F)cnc2c1NCC(CO)C2` (mixture of isomers) [Compound 581a, (R)-Tetrahydrofuran-3-yl (8-amino-7-fluoro-6-(7-(hydroxymethyl)-4-methyl-5,6,7,8-tetrahydro-1,5-naphthyridin-3-yl)isoquinolin-3-yl)carbamate] to `Cc1c(-c2cc3cc(NC(=O)OC4CCOCC4)ncc3c(N)c2F)cnc2c1NCC[C@H]2C` (single isomer, unassigned) [Compound 461a], the Ki rises from 0.43 nM to 0.891 nM (2.1-fold). The first binds more tightly here.

`Cc1c(-c2cc3cc(NC(=O)O[C@@H]4CCN(C5COC5)C[C@H]4F)ncc3c(N)c2F)cnc2c1NCCO2` (relative stereo) [Compound 445ab, (+1-)-trans-3-Fluoro-1-(oxetan-3-yl)piperidin-4-yl (8-amino-7-fluoro-6-(8-methyl-2,3-dihydro-1H-pyrido[2,3-b][1,4]oxazin-7-yl)isoquinolin-3-yl)carbamate] and `Cc1c(-c2cc3cc(NC(=O)OC4CCN(C)CC4F)ncc3c(N)c2F)cnc2c1NCCO2` (single isomer, unassigned) [Compound 433] cannot be ordered by Ki: < 0.013 nM for the first, < 0.013 nM for the second.

Compared with `Cc1c(-c2cc3cc(NC(=O)O[C@H]4CO[C@]5(CCN(C)C5)C4)ncc3c(N)c2F)cnc2c1NCCO2` (relative stereo) [Compound 467b, (3R,5R)-7-Methyl-1-oxa-7-azaspiro[4.4]nonan-3-yl(8-amino-7-fluoro-6-(8-methyl-2,3-dihydro-1H-pyrido[2,3-b][1,4]oxazin-7-yl)isoquinolin-3-yl)carbamate], `Cc1c(-c2cc3cc(NC(=O)O[C@@H]4CO[C@@]5(CCN(C)C5)C4)ncc3c(N)c2F)cnc2c1NCCO2` (single isomer, unassigned) [Compound 467a] is 2.1-fold lower in Ki: 0.064 nM for the first, 0.031 nM for the second. The second binds more tightly here.

`Cc1c(-c2cc3cc(NC(=O)N[C@@H]4CC[C@H]4C#N)ncc3c(N)c2F)cnc2c1NCCO2` (relative stereo) [Compound 712ab, 1-(8-Amino-7-fluoro-6-(8-methyl-2,3-dihydro-1H-pyrido[2,3-b][1,4]oxazin-7-yl)isoquinolin-3-yl)-3-(trans-2-cyanocyclobutyl)urea] and `Cc1c(-c2cc3cc(NC(=O)N[C@H]4CCC[C@H]4O)ncc3c(N)c2F)cnc2c1NCCO2` (relative stereo) [Compound 728a, 1-[8-Amino-7-fluoro-6-(8-methyl-2,3-dihydro-1H-pyrido[2,3-b][1,4]oxazin-7-yl)-3-isoquinolyl]-3-[(1S,2R)-2-hydroxycyclopentyl]urea] cannot be ordered by Ki: < 0.013 nM for the first, < 0.013 nM for the second.

`Cc1c(-c2cc3cc(NC(=O)O[C@@H]4CCNC4)ncc3c(N)c2F)cnc2c1NCCO2` (single isomer, unassigned) [Compound 405a] and `Cc1c(-c2cc3cc(NC(=O)O[C@H]4CCNC4)ncc3c(N)c2F)cnc2c1NCCO2` (single isomer, unassigned) [Compound 405b] are within 1.5-fold of each other in Ki: 0.138 nM for the first, 0.158 nM for the second.

`Cc1c(-c2cc3cc(NC(=O)O[C@H]4CCCNC4)ncc3c(N)c2F)cnc2c1NCCO2` (single isomer, unassigned) [Compound 408a] and `Cc1c(-c2cc3cc(NC(=O)O[C@@H]4CCCNC4)ncc3c(N)c2F)cnc2c1NCCO2` (single isomer, unassigned) [Compound 408b] are within 1.5-fold of each other in Ki: 0.089 nM for the first, 0.069 nM for the second.

First: Cc1c(-c2cc3cc(NC(=O)O[C@H]4CC(=O)N(C)C4)ncc3c(N)c2F)cnc2c1NCCO2 (single isomer, unassigned) [Compound 410a]
Second: Cc1c(-c2cc3cc(NC(=O)O[C@@H]4CC(=O)N(C)C4)ncc3c(N)c2F)cnc2c1NCCO2 (single isomer, unassigned) [Compound 410b]
The Ki of the first is 5.8-fold higher: 0.167 nM for the first, 0.029 nM for the second.

First: Cc1c(-c2cc3cc(NC(=O)OC4CCOCC4)ncc3c(N)c2F)cnc2c1[C@@H](O)CCO2 (single isomer, unassigned) [Compound 412a]
Second: Cc1c(-c2cc3cc(NC(=O)OC4CCOCC4)ncc3c(N)c2F)cnc2c1[C@H](O)CCO2 (single isomer, unassigned) [Compound 412b]
The Ki of the first is 140-fold higher: 41 nM for the first, 0.29 nM for the second. The second binds more tightly here.

Compared with `CC(=O)N[C@H]1CCCC[C@@H]1OC(=O)Nc1cc2cc(-c3cnc4c(c3C)NCCO4)c(F)c(N)c2cn1` (single isomer, unassigned) [Compound 414a], `CC(=O)N[C@@H]1CCCC[C@H]1OC(=O)Nc1cc2cc(-c3cnc4c(c3C)NCCO4)c(F)c(N)c2cn1` (single isomer, unassigned) [Compound 414b] is 36-fold higher in Ki: 0.59 nM for the first, 21 nM for the second.

Going from `CN[C@H]1CCCC[C@@H]1OC(=O)Nc1cc2cc(-c3cnc4c(c3C)NCCO4)c(F)c(N)c2cn1` (single isomer, unassigned) [Compound 415a] to `CN[C@@H]1CCCC[C@H]1OC(=O)Nc1cc2cc(-c3cnc4c(c3C)NCCO4)c(F)c(N)c2cn1` (single isomer, unassigned) [Compound 415b], the Ki rises from 3 nM to 16 nM (5.3-fold). The first binds more tightly here.

`CC(=O)N1CC[C@@H](OC(=O)Nc2cc3cc(-c4cnc5c(c4C)NCCO5)c(F)c(N)c3cn2)C1` (single isomer, unassigned) [Compound 418a] and `CC(=O)N1CC[C@H](OC(=O)Nc2cc3cc(-c4cnc5c(c4C)NCCO5)c(F)c(N)c3cn2)[C@H](F)C1` (single isomer, unassigned) [Compound 437a] cannot be ordered by Ki: < 0.013 nM for the first, < 0.013 nM for the second.

Compared with `CC(=O)N1CC[C@@H](OC(=O)Nc2cc3cc(-c4cnc5c(c4C)NCCO5)c(F)c(N)c3cn2)[C@@H](F)C1` (single isomer, unassigned) [Compound 437b], `Cc1c(-c2cc3cc(NC(=O)O[C@@H]4CN(C)C[C@@H]4F)ncc3c(N)c2F)cnc2c1NCCO2` (single isomer, unassigned) [Compound 452d] is lower in Ki: 0.054 nM for the first, < 0.013 nM for the second. The second binds more tightly here.

Going from `Cc1c(-c2cc3cc(NC(=O)OC4C5COCC4CN(C)C5)ncc3c(N)c2F)cnc2c1NCCO2` (single isomer, unassigned) [Compound 439a] to `Cc1c(-c2cc3cc(NC(=O)O[C@@H]4COCCN(C)C4)ncc3c(N)c2F)cnc2c1NCCO2` (single isomer, unassigned) [Compound 440b], the Ki rises from < 0.013 nM to 0.277 nM. The first binds more tightly here.

First: Cc1c(-c2cc3cc(NC(=O)OC4C5COCC4CN(C)C5)ncc3c(N)c2F)cnc2c1NCCO2 (single isomer, unassigned) [Compound 439b]
Second: Cc1c(-c2cc3cc(NC(=O)O[C@H]4CN(C)C[C@H]4C)ncc3c(N)c2F)cnc2c1NCCO2 (single isomer, unassigned) [Compound 442b]
The Ki of the first is 2.4-fold higher: 0.48 nM for the first, 0.201 nM for the second. The second binds more tightly here.

Compared with `Cc1c(-c2cc3cc(NC(=O)O[C@@H]4COC[C@@H]4C)ncc3c(N)c2F)cnc2c1NCCO2` (single isomer, unassigned) [Compound 441d], `Cc1c(-c2cc3cc(NC(=O)O[C@@H]4CN(C)C[C@H]4C)ncc3c(N)c2F)cnc2c1NCCO2` (single isomer, unassigned) [Compound 442c] is 2.1-fold lower in Ki: 0.32 nM for the first, 0.154 nM for the second. The second binds more tightly here.

Going from `Cc1c(-c2cc3cc(NC(=O)O[C@H]4CN(C)C[C@@H]4C)ncc3c(N)c2F)cnc2c1NCCO2` (single isomer, unassigned) [Compound 442d] to `Cc1c(-c2cc3cc(NC(=O)O[C@@H]4CO[C@]5(CCN(C)C5)C4)ncc3c(N)c2F)cnc2c1NCCO2` (single isomer, unassigned) [Compound 467c], the Ki falls from 0.046 nM to 0.027 nM (1.7-fold).

`CCc1c(-c2cc3cc(NC(=O)O[C@@H]4CC(=O)N(C)C4)ncc3c(N)c2F)cnc2c1NCCO2` (single isomer, unassigned) [Compound 444a] and `CCc1c(-c2cc3cc(NC(=O)O[C@H]4CC(=O)N(C)C4)ncc3c(N)c2F)cnc2c1NCCO2` (single isomer, unassigned) [Compound 444b] cannot be ordered by Ki: < 0.013 nM for the first, < 0.013 nM for the second.

Compared with `Cc1c(-c2cc3cc(NC(=O)OC[C@@]4(F)CCN(C)C4)ncc3c(N)c2F)cnc2c1NCCO2` (single isomer, unassigned) [Compound 451a], `Cc1c(-c2cc3cc(NC(=O)OC[C@]4(F)CCN(C)C4)ncc3c(N)c2F)cnc2c1NCCO2` (single isomer, unassigned) [Compound 451b] is lower in Ki: 0.14 nM for the first, < 0.013 nM for the second. The second binds more tightly here.

Going from `Cc1c(-c2cc3cc(NC(=O)OC4CCOCC4)ncc3c(N)c2F)cnc2c1NCC[C@@H]2C` (single isomer, unassigned) [Compound 461b] to `Cc1c(-c2cc3cc(NC(=O)O[C@H]4CO[C@@]5(CCN(C)C5)C4)ncc3c(N)c2F)cnc2c1NCCO2` (single isomer, unassigned) [Compound 467d], the Ki falls from 1.01 nM to < 0.013 nM.
